Where only a bound is given, the exact number is not on record here.

One experiment addresses T1, PDK1 kinase (Homo sapiens, UniProt O15530).
T1 sequence (O15530 1-556): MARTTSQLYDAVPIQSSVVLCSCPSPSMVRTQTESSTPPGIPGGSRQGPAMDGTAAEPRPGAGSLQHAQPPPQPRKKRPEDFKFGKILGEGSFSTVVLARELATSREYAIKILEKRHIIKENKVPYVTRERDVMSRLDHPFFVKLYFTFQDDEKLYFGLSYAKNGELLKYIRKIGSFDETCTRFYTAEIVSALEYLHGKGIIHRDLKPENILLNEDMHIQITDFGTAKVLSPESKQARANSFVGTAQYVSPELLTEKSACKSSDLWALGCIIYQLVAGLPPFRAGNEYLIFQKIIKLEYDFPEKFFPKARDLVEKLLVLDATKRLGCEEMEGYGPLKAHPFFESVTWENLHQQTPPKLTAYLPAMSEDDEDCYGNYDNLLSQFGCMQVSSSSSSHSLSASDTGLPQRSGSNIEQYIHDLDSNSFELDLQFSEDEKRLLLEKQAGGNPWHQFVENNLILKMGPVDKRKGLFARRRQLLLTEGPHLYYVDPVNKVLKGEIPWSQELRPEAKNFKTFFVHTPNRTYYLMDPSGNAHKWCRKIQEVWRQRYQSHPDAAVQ
The experiment can be described thus: PDK1 Kinase Alpha Screen Assay. In kind it is biochemical. To be noted: PDK1 Kinase Alpha Screen Assay; read-out: PDK1 IC50. In a few lines:
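AlphaScreen readout: phospho-peptide captured by phospho-(Ser/Thr) PKA substrate antibody (0.3 mg/ml) on protein A acceptor beads, biotin peptide on streptavidin donor beads (25 μg/ml each), overnight at room temperature. Kinase step used 50 nM PDK1-4 peptide, 10 uM ATP, 3-18 hours.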

The subject of a further experiment is PC-3 cells. The experiment can be described thus: Cell Proliferation Assay (Cell Titer Glo), PC-3 cell line. In kind it is cell-based. To be noted: Homo sapiens, PC-3, Cell Proliferation Assay, PC3; read-out: CPEC50 PC3. A digest of the protocol: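 Cell Titer Glo luminescence, read after fresh medium replaced the dosing medium, gave viability of PC-3 cells plated at 1000 cells/well. Compounds, 1:3 serially diluted in DMSO at 500× and then in medium, were added after 3-5 h adhesion and incubated 3 days at 37° C.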
In general terms: In ATP-based viability assays light output follows the ATP content of the culture.

Broadly, the IC50 is the concentration that gives 50% inhibition. `Clc1cc(Nc2ncc3ccc(OC4CCNCC4)cc3n2)ccc1N1CCOCC1` [Compound 594, N-(3-chloro-4-morpholinophenyl)-7-(piperidin-4-yloxy)quinazolin-2-amine]: the IC50 at PDK1 kinase was < 5 µM. In addition, the EC50 in the experiment on PC-3 cells is < 5 µM.
As for `O=C(c1ccc(Nc2ncc3c(Cl)ccc(OC4CCNCC4)c3n2)cc1)N1CCOCC1` [Compound 595, (4-(5-chloro-8-(piperidin-4-yloxy)quinazolin-2-ylamino)phenyl)(morpholino)methanone], the half-inhibitory concentration (IC50) on PDK1 kinase is < 5 µM. The EC50 in the experiment with PC-3 cells was 5 to 10 µM.
For the compound `Fc1cc(Nc2ncc3ccc(OC4CCNCC4)cc3n2)ccc1Br` [Compound 596, N-(4-bromo-3-fluorophenyl)-7-(piperidin-4-yloxy)quinazolin-2-amine], the IC50 on PDK1 kinase is < 5 µM. Besides, the EC50 in the experiment with PC-3 cells is < 5 µM.
With `Fc1cc(Nc2ncc3c(Cl)ccc(OC4CCNCC4)c3n2)ccc1N1CCOCC1` [Compound 597, 5-chloro-N-(3-fluoro-4-morpholinophenyl)-8-(piperidin-4-yloxy)quinazolin-2-amine], at PDK1 kinase, the concentration for half-maximal inhibition (IC50) was < 5 µM. In addition, in the experiment with PC-3 cells, the EC50 was in the range of 5 to 10 µM.
The corresponding values for `Cn1cc(-c2ccc(Nc3ncc4ccc(OC5CCNCC5)cc4n3)cc2F)cn1` [Compound 598, N-(3-fluoro-4-(1-methyl-1H-pyrazol-4-yl)phenyl)-7-(piperidin-4-yloxy)quinazolin-2-amine] are < 5 µM and 5 to 10 µM.
Regarding `CC(C)NC(=O)c1ccc(Nc2ncc3c(Cl)ccc(OC4CCNCC4)c3n2)cc1` [Compound 599, 4-(5-chloro-8-(piperidin-4-yloxy)quinazolin-2-ylamino)-N-isopropylbenzamide], at PDK1 kinase, the concentration for half-maximal inhibition (IC50) was < 5 µM. In the experiment on PC-3 cells, the EC50 was < 5 µM.
Regarding `Fc1cccc(Nc2ncc3c(Cl)ccc(OC4CCNCC4)c3n2)c1` [Compound 600, 5-chloro-N-(3-fluorophenyl)-8-(piperidin-4-yloxy)quinazolin-2-amine], the IC50 on PDK1 kinase is < 5 µM. Besides, in the experiment with PC-3 cells, the EC50 is < 5 µM.
In the case of `Clc1ccc(OC2CCNCC2)c2nc(Nc3cccc(N4CCOCC4)c3)ncc12` [Compound 601, 5-chloro-N-(3-morpholinophenyl)-8-(piperidin-4-yloxy)quinazolin-2-amine], the IC50 at PDK1 kinase was < 5 µM. For the same compound, the EC50 in the experiment with PC-3 cells was in the range of 5 to 10 µM.
With `Clc1cc(Nc2ncc3c(Cl)ccc(OC4CCNCC4)c3n2)ccc1N1CCOCC1` [Compound 602], on PDK1 kinase, the concentration for half-maximal inhibition (IC50) is < 5 µM. Also, in the experiment with PC-3 cells, the EC50 was < 5 µM.
As for `CC(C)NS(=O)(=O)c1ccc(Nc2ncc3c(Cl)ccc(OC4CCNCC4)c3n2)cc1` [Compound 603, 4-(5-chloro-8-(piperidin-4-yloxy)quinazolin-2-ylamino)-N-isopropylbenzenesulfonamide], the IC50 at PDK1 kinase is < 5 µM. Besides, the EC50 with PC-3 cells is < 5 µM.
Take `O=C(NC1CC1)c1ccc(Nc2ncc3c(Cl)ccc(OC4CCNCC4)c3n2)cc1` [Compound 604, 4-(5-chloro-8-(piperidin-4-yloxy)quinazolin-2-ylamino)-N-cyclopropylbenzamide]: at PDK1 kinase, the IC50 was < 5 µM. Further, the EC50 in the experiment with PC-3 cells was < 5 µM.
Regarding `Clc1ccc(OC2CCNCC2)c2nc(Nc3ccc(N4CCOCC4)cc3)ncc12` [Compound 605, 5-chloro-N-(4-morpholinophenyl)-8-(piperidin-4-yloxy)quinazolin-2-amine], the IC50 at PDK1 kinase is < 5 µM. In addition, the EC50 with PC-3 cells was in the range of 5 to 10 µM.
Take `O=S(=O)(c1ccc(Nc2ncc3c(Cl)ccc(OC4CCNCC4)c3n2)cc1)N1CCOCC1` [Compound 606, 5-chloro-N-(4-(morpholinosulfonyl)phenyl)-8-(piperidin-4-yloxy)quinazolin-2-amine]: the IC50 on PDK1 kinase is < 5 µM. Also, the EC50 in the experiment with PC-3 cells was < 5 µM.
With `CC(C)NS(=O)(=O)c1ccc(Nc2ncc3ccc(OC4CCNCC4)cc3n2)cc1` [Compound 607, N-isopropyl-4-(7-(piperidin-4-yloxy)quinazolin-2-ylamino)benzenesulfonamide], on PDK1 kinase, the IC50 is < 5 µM. Moreover, the EC50 in the experiment on PC-3 cells was < 5 µM.
Turning to `O=C(c1ccc(Nc2ncc3c(Cl)ccc(OC4CNC4)c3n2)cc1)N1CCOCC1` [Compound 608, (4-(8-(azetidin-3-yloxy)-5-chloroquinazolin-2-ylamino)phenyl)(morpholino)methanone], the 50% inhibitory concentration (IC50) at PDK1 kinase is < 5 µM. In addition, the EC50 in the experiment on PC-3 cells was in the range of 5 to 10 µM.
In the case of `Clc1ccc(OC2CNC2)c2nc(Nc3ccc(N4CCOCC4)cc3)ncc12` [Compound 609, 8-(azetidin-3-yloxy)-5-chloro-N-(4-morpholinophenyl)quinazolin-2-amine], the IC50 on PDK1 kinase is < 5 µM. Moreover, the EC50 in the experiment with PC-3 cells lay in the range of 5 to 10 µM.
Take `Fc1cc(Nc2ncc3c(Cl)ccc(OC4CNC4)c3n2)ccc1N1CCOCC1` [Compound 610, 8-(azetidin-3-yloxy)-5-chloro-N-(3-fluoro-4-morpholinophenyl)quinazolin-2-amine]: the half-maximal inhibitory concentration (IC50) on PDK1 kinase was < 5 µM. In the experiment with PC-3 cells, the EC50 was 5 to 10 µM.
Turning to `Clc1cc(Nc2ncc3c(Cl)ccc(OC4CNC4)c3n2)ccc1N1CCOCC1` [Compound 611, 8-(azetidin-3-yloxy)-5-chloro-N-(3-chloro-4-morpholinophenyl)quinazolin-2-amine], on PDK1 kinase, the IC50 was < 5 µM. For the same compound, the EC50 in the experiment with PC-3 cells is < 5 µM.
With `CC(C)NC(=O)c1ccc(Nc2ncc3c(Cl)ccc(OC4CNC4)c3n2)cc1` [Compound 612, 4-(8-(azetidin-3-yloxy)-5-chloroquinazolin-2-ylamino)-N-isopropylbenzamide], the IC50 at PDK1 kinase was < 5 µM. Also, in the experiment on PC-3 cells, the EC50 is 5 to 10 µM.
`O=C(NC1CC1)c1ccc(Nc2ncc3c(Cl)ccc(OC4CNC4)c3n2)cc1` [Compound 613, 4-(8-(azetidin-3-yloxy)-5-chloroquinazolin-2-ylamino)-N-cyclopropylbenzamide]: the half-maximal inhibitory concentration (IC50) on PDK1 kinase was < 5 µM. For the same compound, the EC50 with PC-3 cells was < 5 µM.
`c1cc(N2CCOCC2)ccc1Nc1ncc2ccc(OC3CCNCC3)cc2n1` [Compound 614, N-(4-morpholinophenyl)-7-(piperidin-4-yloxy)quinazolin-2-amine]: the 50% inhibitory concentration (IC50) on PDK1 kinase was < 5 µM. Also, the EC50 with PC-3 cells is < 5 µM.
Turning to `CC(C)NS(=O)(=O)c1ccc(Nc2ncc3c(Cl)ccc(OC4CNC4)c3n2)cc1` [Compound 615, 4-(8-(azetidin-3-yloxy)-5-chloroquinazolin-2-ylamino)-N-isopropylbenzenesulfonamide], on PDK1 kinase, the half-maximal inhibitory concentration (IC50) was < 5 µM. Also, the EC50 in the experiment with PC-3 cells is < 5 µM.
As to `O=S(=O)(c1cccc(Nc2ncc3c(Cl)ccc(OC4CNC4)c3n2)c1)N1CCOCC1` [Compound 616, 8-(azetidin-3-yloxy)-5-chloro-N-(3-(morpholinosulfonyl)phenyl)quinazolin-2-amine], the IC50 on PDK1 kinase was < 5 µM. The EC50 in the experiment with PC-3 cells was < 5 µM.
Regarding `Clc1ccc(OC2CCNCC2)c2nc(Nc3cccc(-c4cc[nH]n4)c3)ncc12` [Compound 617, N-(3-(1H-pyrazol-3-yl)phenyl)-5-chloro-8-(piperidin-4-yloxy)quinazolin-2-amine], at PDK1 kinase, the IC50 is < 5 µM. The EC50 in the experiment with PC-3 cells lay within 5 to 10 µM.
Consider `NS(=O)(=O)c1ccc(Nc2ncc3ccccc3n2)cc1` [Compound 618, 4-(quinazolin-2-ylamino)benzenesulfonamide], for which the 50% inhibitory concentration (IC50) on PDK1 kinase is < 5 µM. The EC50 in the experiment on PC-3 cells was 5 to 10 µM.
The corresponding values for `CC(C)N1CCC(Oc2cc3nc(Nc4ccc(N5CCOCC5)cc4)ncc3cc2-c2nccs2)CC1` [Compound 619, 7-(1-isopropylpiperidin-4-yloxy)-N-(4-morpholinophenyl)-6-(thiazol-2-yl)quinazolin-2-amine] are < 5 µM and < 5 µM.
On to `CC(C)N1CCC(Oc2cc3nc(Nc4ccc(N5CCOCC5)cc4)ncc3cc2Br)CC1` [Compound 620, 6-bromo-7-(1-isopropylpiperidin-4-yloxy)-N-(4-morpholinophenyl)quinazolin-2-amine], for which the IC50 on PDK1 kinase was < 5 µM. Besides, the EC50 in the experiment with PC-3 cells is < 5 µM.
For the compound `CC(C)N1CCC(Oc2cc3nc(Nc4ccc(N5CCOCC5)cc4)ncc3cc2-c2cn[nH]c2)CC1` [Compound 621, 7-(1-isopropylpiperidin-4-yloxy)-N-(4-morpholinophenyl)-6-(1H-pyrazol-4-yl)quinazolin-2-amine], the concentration for half-maximal inhibition (IC50) on PDK1 kinase was < 5 µM. For the same compound, the EC50 in the experiment on PC-3 cells is < 5 µM.
For `C#Cc1cc(-c2ccc(NCCN3CCCC3)nc2)c2nc(Nc3ccc(S(N)(=O)=O)cc3)ncc2c1` [Compound 634, 4-(6-ethynyl-8-(6-(2-(pyrrolidin-1-yl)ethylamino)pyridin-3-yl)quinazolin-2-ylamino)benzenesulfonamide], the IC50 on PDK1 kinase is < 5 µM. In addition, the EC50 in the experiment with PC-3 cells was < 5 µM.
On to `C#Cc1cc(OC2CN3CCC2CC3)c2nc(Nc3ccc(S(N)(=O)=O)cc3)ncc2c1` (stereo not drawn) [Compound 635, 4-(6-ethynyl-8-(quinuclidin-3-yloxy)quinazolin-2-ylamino)benzenesulfonamide], for which the half-maximal inhibitory concentration (IC50) at PDK1 kinase was < 5 µM. For the same compound, the EC50 in the experiment with PC-3 cells is < 5 µM.

Values taken from patent publication US7932262B2 (Novartis AG, priority 2006, dated 2011).
